Test results from PubChem BioAssay AID435023 (Broad Institute, 2010).
Calls of active or inactive are those of the source. The rule behind the calls is not given here.

Target: Protein LANA1 (Human herpesvirus 8 type P (isolate GK18)) (UniProt Q9QR71)
Assay: LANA–H2A/H2B histone binding inhibitors, dose response, biochemical, fluorescence polarization, cell-free, retest (AID 435023)
Conditions: LANA peptide-nucleosome binding

Sequence of Protein LANA1 (Human herpesvirus 8 type P (isolate GK18)) (Q9QR71 whole entry, looked up): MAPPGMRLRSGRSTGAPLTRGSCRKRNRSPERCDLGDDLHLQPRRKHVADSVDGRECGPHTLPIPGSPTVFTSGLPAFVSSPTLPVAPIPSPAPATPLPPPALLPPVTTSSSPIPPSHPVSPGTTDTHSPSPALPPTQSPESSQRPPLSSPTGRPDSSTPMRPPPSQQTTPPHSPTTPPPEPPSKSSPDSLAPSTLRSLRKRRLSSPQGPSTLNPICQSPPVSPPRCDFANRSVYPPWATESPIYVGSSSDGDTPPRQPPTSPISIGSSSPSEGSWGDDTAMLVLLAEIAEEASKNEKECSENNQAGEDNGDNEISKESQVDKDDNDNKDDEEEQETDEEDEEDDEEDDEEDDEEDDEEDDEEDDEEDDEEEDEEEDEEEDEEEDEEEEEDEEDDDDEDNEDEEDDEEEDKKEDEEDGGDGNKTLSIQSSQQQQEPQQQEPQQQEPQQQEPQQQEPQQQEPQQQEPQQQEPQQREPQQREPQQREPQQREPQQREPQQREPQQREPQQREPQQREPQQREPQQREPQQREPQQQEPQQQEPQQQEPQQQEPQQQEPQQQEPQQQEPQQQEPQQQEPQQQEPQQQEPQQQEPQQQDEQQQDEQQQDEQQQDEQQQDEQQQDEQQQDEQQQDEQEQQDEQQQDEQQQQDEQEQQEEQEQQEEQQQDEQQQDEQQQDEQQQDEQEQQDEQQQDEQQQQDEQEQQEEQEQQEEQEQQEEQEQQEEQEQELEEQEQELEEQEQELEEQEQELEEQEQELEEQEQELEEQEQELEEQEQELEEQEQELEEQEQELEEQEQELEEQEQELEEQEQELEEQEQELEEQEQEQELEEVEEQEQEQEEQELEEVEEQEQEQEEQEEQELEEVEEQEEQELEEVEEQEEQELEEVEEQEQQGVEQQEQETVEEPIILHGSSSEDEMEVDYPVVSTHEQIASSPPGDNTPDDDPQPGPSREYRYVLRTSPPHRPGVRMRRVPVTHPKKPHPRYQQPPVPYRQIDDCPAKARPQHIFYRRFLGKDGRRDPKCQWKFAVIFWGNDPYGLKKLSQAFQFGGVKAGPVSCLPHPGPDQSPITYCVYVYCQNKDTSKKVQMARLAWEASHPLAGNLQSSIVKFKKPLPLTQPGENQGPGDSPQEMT

Structure (SMILES)	EC50
O=C(C1=C(O)C(=O)N(CCCN2CCOCC2)C1c1ccccn1)c1cc2ccccc2o1 (configuration not stated)	> 7.5 µM (inactive)
COc1ccc(N/C=C/C(=O)c2ccc(Cl)cc2)cc1	> 7.5 µM (inactive)
COc1cc([N+](=O)[O-])ccc1N1C(=O)CC(Sc2nccc(C)n2)C1=O (configuration not stated)	> 7.5 µM (inactive)
C/C(=N/NC(=O)c1ccncc1)c1cc2ccc(O)cc2oc1=O	> 7.5 µM (inactive)
CCCCc1ccc(N=N/C(C(=O)Nc2ccc(NC(C)=O)cc2OC)=C(/C)O)cc1	> 7.5 µM (inactive)
C/C(=N\N=C1/NC(=O)C(C)S1)c1ccc([N+](=O)[O-])cc1 (configuration not stated)	> 7.5 µM (inactive)
CC(=O)c1cccc(OC(=O)C2=CC=CN3CCS(=O)(=O)N=C23)c1	> 7.5 µM (inactive)
C/C(=N\Nc1nncc2ccccc12)c1ccc(O)cc1	> 7.5 µM (inactive)
CC[C@H]1c2[nH]c3ccccc3c2C[C@H]2C(=O)N(c3ccc(F)cc3)C(=O)N21	> 7.5 µM (inactive)
Cc1ccc(/C(O)=C/c2nc3cc(C)ccc3oc2=O)cc1	5.84 µM
O=C1CC(c2ccc(F)cc2)CC(O)=C1C=NCCN1CCNCC1 (configuration not stated)	> 7.5 µM (inactive)
COc1ccccc1N1CCN(C2CC(=O)N(c3cccc(Cl)c3)C2=O)CC1 (configuration not stated)	> 7.5 µM (inactive)
CCOc1ccc(N2C(=O)C3ON(c4ccccc4)C(c4ccco4)C3C2=O)cc1 (configuration not stated)	> 7.5 µM (inactive)
O=[N+]([O-])c1cccc(/C=N/Nc2nccnc2Cl)c1	> 7.5 µM (inactive)
O=C(O)C(C/C(=N/O)c1ccc(Br)cc1)P(=O)(c1ccccc1)c1ccccc1 (configuration not stated)	> 7.5 µM (inactive)
COc1ccc(CCn2c(O)c(C=Nc3ccc(F)cc3)c(=O)[nH]c2=O)cc1OC	> 7.5 µM (inactive)
CC1C2CC(C(CN(C)C)/C2=N/O)C1(C)C (configuration not stated)	> 7.5 µM (inactive)
Oc1c(N=NC(=S)Nc2ccccc2F)c2ccccc2n1Cc1ccc(Cl)cc1	> 7.5 µM (inactive)
Brc1ccc(C2=CC(c3ccco3)n3ncnc3N2)cc1 (configuration not stated)	> 7.5 µM (inactive)
NC(=O)Cn1c(O)c(N=NC(=O)CNC(=O)/C=C/c2ccccc2)c2ccccc21	> 7.5 µM (inactive)
CC1=NCCc2c1[nH]c1cc(O)ccc21	2.37 µM
CC(=O)C1=C(O)C(=O)N(c2ccc(C(=O)O)cc2)C1c1ccc([N+](=O)[O-])cc1 (configuration not stated)	> 7.5 µM (inactive)
CCOc1cc(C2C3=C(CCCC3=O)Nc3nc(C(=O)OC)nn32)ccc1OC (configuration not stated)	> 7.5 µM (inactive)
COc1cccc(CNC(=O)c2ccc(NC(=O)CC3SC(N4CCCC4)=NC3=O)cc2)c1 (configuration not stated)	> 7.5 µM (inactive)

Structure (SMILES)	EC50
O=C(O)CC1S/C(=N/N=C/c2ccccn2)NC1=O (configuration not stated)	> 7.5 µM (inactive)
CCOC(=O)C1=C(CSc2nc(-c3ccccc3)ccc2C#N)OC(N)=C(C#N)C1c1ccccc1 (configuration not stated)	> 7.5 µM (inactive)
CCn1c(O)c(/C=C2\C=NN=C2c2ccccc2)sc1=S	> 7.5 µM (inactive)
O=C(CC1SC(N2CCCCC2)=NC1=O)Nc1cccc(C(=O)O)c1 (configuration not stated)	> 7.5 µM (inactive)
COc1ccc(N/C=C/C(=O)c2cc(OC)c(OC)c(OC)c2)cc1	> 7.5 µM (inactive)
Cc1cc(C)nc(SC2CC(=O)N(c3ccc(C)c(C)c3)C2=O)n1 (configuration not stated)	> 7.5 µM (inactive)
O=C(C1=C(O)C(=O)N(Cc2ccccc2)C1c1cccnc1)c1ccco1 (configuration not stated)	> 7.5 µM (inactive)
CCN(CC)CCCN1C(=O)C(=O)/C(=C(/O)c2ccccc2)C1c1cc(OC)ccc1OC (configuration not stated)	> 7.5 µM (inactive)
O=C1CCCC(O)=C1C=Nc1ccc(O)cc1	> 7.5 µM (inactive)
COc1ccc(NC2=C(Cl)C(=O)N(c3ccccc3)C2=O)c(OC)c1	> 7.5 µM (inactive)
CCc1nnc(NS(=O)(=O)c2ccc(N=CC3=C(O)CC(C)(C)CC3=O)cc2)s1	> 7.5 µM (inactive)
CCN(CC)CCN1C(=O)C(O)=C(C(=O)c2ccc(C)o2)C1c1ccccn1 (configuration not stated)	> 7.5 µM (inactive)
COc1ccccc1N1C(=O)[C@@H]2C(C(=O)CN3C(=O)c4ccccc4C3=O)=NN[C@@H]2C1=O	> 7.5 µM (inactive)
Cc1nc2c(C)cccn2c1/C(O)=C1\C(=O)C(=O)N(CCN(C)C)C1c1ccccc1 (configuration not stated)	> 7.5 µM (inactive)
COc1ccc(C2C(C(=O)c3cccs3)=C(O)C(=O)N2c2nncs2)cc1 (configuration not stated)	> 7.5 µM (inactive)
CN1CC=C2C(C#N)=C(N)C(C#N)(C#N)[C@H](c3ccoc3)[C@H]2C1	> 7.5 µM (inactive)
COc1ccc(C2=CC(c3cc(OC)c(OC)c(OC)c3)NC(=S)N2)cc1 (configuration not stated)	> 7.5 µM (inactive)
CCNc1nc(NCC)nc(N/N=C/c2ccc(N(C)C)cc2)n1	> 7.5 µM (inactive)
N#Cc1ccccc1/C=N/Nc1nc(-c2ccccc2)c2cc(Cl)ccc2n1	> 7.5 µM (inactive)
CC1(C)C(C#N)=C(N)OC2=C1C(=O)CCC2	> 7.5 µM (inactive)
CC1(C)C(c2cccs2)=[N+]([O-])C2(CCCCC/C2=N\O)N1O (configuration not stated)	> 7.5 µM (inactive)
COc1ccc(C2C(C(=O)c3ccco3)=C(O)C(=O)N2CC2CCCO2)cc1OC (configuration not stated)	> 7.5 µM (inactive)
CCOc1cccc(C2C(C(=O)c3ccc(C)o3)=C(O)C(=O)N2c2nccs2)c1 (configuration not stated)	> 7.5 µM (inactive)
Cc1ccc(NC2=C([N+](=O)[O-])CS(=O)(=O)C2)cc1	> 7.5 µM (inactive)

Structure (SMILES)	EC50
CN(CCOc1ccc(CC2SC(=O)NC2=O)cc1)c1ccccn1 (configuration not stated)	> 7.5 µM (inactive)
COC(=O)c1ccccc1NC1CC(=O)N(c2c(C)cccc2C)C1=O (configuration not stated)	> 7.5 µM (inactive)
C/C(=N\Nc1ccc(Cl)c(C(=O)O)c1)c1ccc(N2CCOCC2)cc1	> 7.5 µM (inactive)
COc1ccc(CC2C(=O)N(c3ccccc3)C(=O)N(c3ccccc3)C2=O)c(OC)c1	> 7.5 µM (inactive)
CNC(=O)c1ccc(NC(=O)CC2SC(N3CCCC3)=NC2=O)cc1 (configuration not stated)	> 7.5 µM (inactive)
Cc1ccc(N2C(=O)[C@@H]3C(C(=O)CN4C(=O)c5ccccc5C4=O)=NN[C@@H]3C2=O)c(C)c1	> 7.5 µM (inactive)
Cn1[nH]c(-c2ccccc2)c(/C=N/O)c1=O	> 7.5 µM (inactive)
CC1OC(OCC2OC(Oc3c(-c4ccc(O)cc4)oc4cc(O)cc(O)c4c3=O)C(O)C(O)C2O)C(O)C(O)C1O (configuration not stated)	> 7.5 µM (inactive)
COC(=O)CC1=C(C(=O)OC)C(c2cc(OC)c(OC)cc2OC)C(C#N)=C(N)O1 (configuration not stated)	> 7.5 µM (inactive)
CCC/C=N/O	> 7.5 µM (inactive)
COc1ccc(C(=O)/C=C/Nc2ccc(S(=O)(=O)Nc3cc(OC)nc(OC)n3)cc2)c(OC)c1	> 7.5 µM (inactive)
CC1(C)CC(=O)C(C(C#Cc2ccccc2)C2=C(O)CC(C)(C)CC2=O)=C(O)C1	> 7.5 µM (inactive)
COc1ccccc1C1C(C(=O)c2sc(C)nc2C)=C(O)C(=O)N1CCN1CCOCC1 (configuration not stated)	> 7.5 µM (inactive)
COc1cc(/C=N/O)c(Br)cc1OCC(=O)Nc1ccccc1C	> 7.5 µM (inactive)
CC1Cc2cc(/C(O)=C3\C(=O)C(=O)N(Cc4cccnc4)C3c3ccccc3F)ccc2O1 (configuration not stated)	> 7.5 µM (inactive)
N#CC(C#N)=C/C(C#N)=C(/N)N1CCN(c2ccc(Cl)cc2)CC1	> 7.5 µM (inactive)
C=CCOc1ccc(/C(O)=C2/C(=O)C(=O)N(CCCN3CCOCC3)C2c2ccc(OC)cc2)cc1 (configuration not stated)	> 7.5 µM (inactive)
Oc1ccc2nnc3c(Br)cnn3c2c1	> 7.5 µM (inactive)
O=C(CC1SC(N2CCOCC2)=NC1=O)Nc1ccc(Cl)c(C(F)(F)F)c1 (configuration not stated)	> 7.5 µM (inactive)
Cc1ccc2oc(=O)c(/C=C(\O)c3ccco3)nc2c1	> 7.5 µM (inactive)
Cc1cccc(CC2CC(=O)N(c3ccc(C)cc3Br)C2=O)c1 (configuration not stated)	> 7.5 µM (inactive)
O=c1c(/C=C(\O)c2ccc(F)cc2)nc2ccccc2n1-c1ccccc1	> 7.5 µM (inactive)
O=C(/C=C/Nc1ccccc1)c1ccc(Cl)cc1Cl	> 7.5 µM (inactive)
CC(C)n1c(O)c(/C=C2\C=NN=C2c2ccccc2)sc1=S	> 7.5 µM (inactive)
